In the supplement of paper PMC10307832:

Experiments:
Test in all cases: relative viability (nuclei count vs DMSO), 5 days (fraction); higher = more cells survive
[1] = compound: O=c1[nH]cc(F)c(=O)[nH]1 [5-Fluorouracil] + CS(=O)(=O)CCNCc1ccc(-c2ccc3ncnc(Nc4ccc(OCc5cccc(F)c5)c(Cl)c4)c3c2)o1 [Lapatinib] (partner 2 µM)
How it was run: (§1)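 Relative viability divides the nuclei count in treated wells by that in vehicle wells. Lung cancer cell lines were seeded in 1536-well plates, dosed by pin tool the next day, and fixed and stained after 5 days in one step with final 0.05% Triton X-100, 1% formaldehyde and 1 ug/ml Hoechst. Dosing was a single drug or a fixed anchor-drug dose plus five library-drug doses (not always all listed) in √10 steps, and values are medians of duplicate plates imaged at 4×.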

[2] = compound: CN[C@@H]1C[C@H]2O[C@@](C)([C@@H]1OC)n1c3ccccc3c3c4c(c5c6ccccc6n2c5c31)C(=O)NC4 [Staurosporine] + CS(=O)(=O)N1CCN(Cc2cc3nc(-c4cccc5[nH]ncc45)nc(N4CCOCC4)c3s2)CC1 [Pictilisib] (partner 1 µM)
How it was run: as §1

[3] = compound: O=c1[nH]cc(F)c(=O)[nH]1 [5-Fluorouracil] + CCNC(=O)c1noc(-c2cc(C(C)C)c(O)cc2O)c1-c1ccc(CN2CCOCC2)cc1 [Luminespib] (partner 0.01 µM)
How it was run: as §1

[4] = compound: CC1=C(CC(=O)O)c2cc(F)ccc2/C1=C\c1ccc([S+](C)[O-])cc1 [Sulindac] + Cc1nc(Nc2ncc(C(=O)Nc3c(C)cccc3Cl)s2)cc(N2CCN(CCO)CC2)n1 [Dasatinib] (partner 0.075 µM)
How it was run: as §1

NCI-H2347 gave a relative viability ([1]; first compound 0.02 µM) of 1.07, a relative viability ([1]; first compound 0.2 µM) of 0.796 and a relative viability ([1]; first compound 0.6325 µM) of 0.48. For the same cell line, the relative viability ([1]; first compound 2 µM) was 0.436, the relative viability ([2]; first compound 0.005 µM) was 0.836 and the relative viability ([2]; first compound 0.01581 µM) was 0.217. For the same cell line, the relative viability ([2]; first compound 0.05 µM) was 0.487, the relative viability ([2]; first compound 0.1581 µM) was 0.333 and the relative viability ([2]; first compound 0.5 µM) was 0.357. The relative viability ([3]; first compound 0.02 µM) was 0.41, the relative viability ([3]; first compound 0.2 µM) was 0.72 and the relative viability ([3]; first compound 0.6325 µM) was 0.41. It also gave a relative viability ([3]; first compound 2 µM) of 0.411, a relative viability ([4]; first compound 0.08 µM) of 0.282 and a relative viability ([4]; first compound 0.253 µM) of 0.25. For the same cell line, the relative viability ([4]; first compound 2.53 µM) was 0.303 and the relative viability ([4]; first compound 8 µM) was 0.275.

NCI-H1651 was tested, and the relative viability ([1]; first compound 0.02 µM) was 1.04, the relative viability ([1]; first compound 0.2 µM) was 0.701 and the relative viability ([1]; first compound 0.6325 µM) was 0.471. It also gave a relative viability ([1]; first compound 2 µM) of 0.435, a relative viability ([2]; first compound 0.005 µM) of 0.438 and a relative viability ([2]; first compound 0.01581 µM) of 0.334. It also gave a relative viability ([2]; first compound 0.05 µM) of 0.239, a relative viability ([2]; first compound 0.1581 µM) of 0.097 and a relative viability ([2]; first compound 0.5 µM) of 0.089. The relative viability ([3]; first compound 0.02 µM) was 1.02, the relative viability ([3]; first compound 0.2 µM) was 0.764 and the relative viability ([3]; first compound 0.6325 µM) was 0.588. For the same cell line, the relative viability ([3]; first compound 2 µM) was 0.466, the relative viability ([4]; first compound 0.08 µM) was 0.475 and the relative viability ([4]; first compound 0.253 µM) was 0.539. For the same cell line, the relative viability ([4]; first compound 2.53 µM) was 0.419 and the relative viability ([4]; first compound 8 µM) was 0.777.

NCI-H1993 was tested, and the relative viability ([1]; first compound 0.02 µM) was 0.706, the relative viability ([1]; first compound 0.2 µM) was 0.765 and the relative viability ([1]; first compound 0.6325 µM) was 0.65. For the same cell line, the relative viability ([1]; first compound 2 µM) was 0.591, the relative viability ([2]; first compound 0.005 µM) was 0.869 and the relative viability ([2]; first compound 0.01581 µM) was 0.646. For the same cell line, the relative viability ([2]; first compound 0.05 µM) was 0.66, the relative viability ([2]; first compound 0.1581 µM) was 0.526 and the relative viability ([2]; first compound 0.5 µM) was 0.565. It also gave a relative viability ([3]; first compound 0.02 µM) of 0.768, a relative viability ([3]; first compound 0.2 µM) of 0.682 and a relative viability ([3]; first compound 0.6325 µM) of 0.664. The relative viability ([3]; first compound 2 µM) was 0.595, the relative viability ([4]; first compound 0.08 µM) was 0.569 and the relative viability ([4]; first compound 0.253 µM) was 0.516. It also gave a relative viability ([4]; first compound 0.8 µM) of 0.543, a relative viability ([4]; first compound 2.53 µM) of 0.581 and a relative viability ([4]; first compound 8 µM) of 0.575.

For COR-L23, the relative viability ([1]; first compound 0.02 µM) was 1.03, the relative viability ([1]; first compound 0.2 µM) was 0.921 and the relative viability ([1]; first compound 0.6325 µM) was 0.48. It also gave a relative viability ([1]; first compound 2 µM) of 0.253, a relative viability ([2]; first compound 0.005 µM) of 0.32 and a relative viability ([2]; first compound 0.01581 µM) of 0.148. The relative viability ([2]; first compound 0.05 µM) was 0.127, the relative viability ([2]; first compound 0.1581 µM) was 0.0645 and the relative viability ([2]; first compound 0.5 µM) was 0.0442. The relative viability ([3]; first compound 0.02 µM) was 0.86, the relative viability ([3]; first compound 0.2 µM) was 0.691 and the relative viability ([3]; first compound 0.6325 µM) was 0.512. It also gave a relative viability ([3]; first compound 2 µM) of 0.168, a relative viability ([4]; first compound 0.08 µM) of 0.478 and a relative viability ([4]; first compound 0.253 µM) of 0.419. It also gave a relative viability ([4]; first compound 0.8 µM) of 0.438, a relative viability ([4]; first compound 2.53 µM) of 0.489 and a relative viability ([4]; first compound 8 µM) of 0.744.

LOU-NH91 was tested, and the relative viability ([1]; first compound 0.02 µM) was 0.777, the relative viability ([1]; first compound 0.2 µM) was 0.83 and the relative viability ([1]; first compound 0.6325 µM) was 0.497. It also gave a relative viability ([1]; first compound 2 µM) of 0.406, a relative viability ([2]; first compound 0.005 µM) of 0.521 and a relative viability ([2]; first compound 0.01581 µM) of 0.38. For the same cell line, the relative viability ([2]; first compound 0.05 µM) was 0.338, the relative viability ([2]; first compound 0.1581 µM) was 0.277 and the relative viability ([2]; first compound 0.5 µM) was 0.279. For the same cell line, the relative viability ([3]; first compound 0.02 µM) was 0.37, the relative viability ([3]; first compound 0.2 µM) was 0.355 and the relative viability ([3]; first compound 0.6325 µM) was 0.332. The relative viability ([3]; first compound 2 µM) was 0.277, the relative viability ([4]; first compound 0.08 µM) was 0.65 and the relative viability ([4]; first compound 0.253 µM) was 0.53. For the same cell line, the relative viability ([4]; first compound 0.8 µM) was 0.481, the relative viability ([4]; first compound 2.53 µM) was 0.54 and the relative viability ([4]; first compound 8 µM) was 0.573.

Cell Line NCI-H520 has a relative viability ([1]; first compound 0.02 µM) of 0.952, a relative viability ([1]; first compound 0.2 µM) of 0.856 and a relative viability ([1]; first compound 0.6325 µM) of 0.459. It also gave a relative viability ([1]; first compound 2 µM) of 0.333, a relative viability ([2]; first compound 0.005 µM) of 0.484 and a relative viability ([2]; first compound 0.01581 µM) of 0.206. It also gave a relative viability ([2]; first compound 0.05 µM) of 0.39, a relative viability ([2]; first compound 0.1581 µM) of 0.178 and a relative viability ([2]; first compound 0.5 µM) of 0.159. It also gave a relative viability ([3]; first compound 0.02 µM) of 0.19, a relative viability ([3]; first compound 0.2 µM) of 0.236 and a relative viability ([3]; first compound 0.6325 µM) of 0.19. For the same cell line, the relative viability ([3]; first compound 2 µM) was 0.21, the relative viability ([4]; first compound 0.08 µM) was 0.241 and the relative viability ([4]; first compound 0.253 µM) was 0.201. The relative viability ([4]; first compound 2.53 µM) was 0.204 and the relative viability ([4]; first compound 8 µM) was 0.226.

In the case of NCI-H661, the relative viability ([1]; first compound 0.02 µM) is reported as 0.482, the relative viability ([1]; first compound 0.2 µM) is reported as 0.526 and the relative viability ([1]; first compound 0.6325 µM) is reported as 0.558. The relative viability ([1]; first compound 2 µM) was 0.51, the relative viability ([2]; first compound 0.005 µM) was 0.345 and the relative viability ([2]; first compound 0.01581 µM) was 0.265. For the same cell line, the relative viability ([2]; first compound 0.05 µM) was 0.277, the relative viability ([2]; first compound 0.1581 µM) was 0.245 and the relative viability ([2]; first compound 0.5 µM) was 0.271. For the same cell line, the relative viability ([3]; first compound 0.02 µM) was 0.942, the relative viability ([3]; first compound 0.6325 µM) was 0.955 and the relative viability ([3]; first compound 2 µM) was 0.888. For the same cell line, the relative viability ([4]; first compound 0.08 µM) was 0.966, the relative viability ([4]; first compound 0.253 µM) was 0.842 and the relative viability ([4]; first compound 0.8 µM) was 0.759. The relative viability ([4]; first compound 2.53 µM) was 0.807 and the relative viability ([4]; first compound 8 µM) was 1.08.

For NCI-H1975, the relative viability ([1]; first compound 0.02 µM) was 0.879, the relative viability ([1]; first compound 0.2 µM) was 1.09 and the relative viability ([1]; first compound 0.6325 µM) was 0.495. For the same cell line, the relative viability ([1]; first compound 2 µM) was 0.333, the relative viability ([2]; first compound 0.005 µM) was 0.209 and the relative viability ([2]; first compound 0.01581 µM) was 0.14. The relative viability ([2]; first compound 0.05 µM) was 0.156, the relative viability ([2]; first compound 0.1581 µM) was 0.103 and the relative viability ([2]; first compound 0.5 µM) was 0.11. The relative viability ([3]; first compound 0.02 µM) was 0.302, the relative viability ([3]; first compound 0.2 µM) was 0.217 and the relative viability ([3]; first compound 0.6325 µM) was 0.397. It also gave a relative viability ([3]; first compound 2 µM) of 0.237, a relative viability ([4]; first compound 0.08 µM) of 0.411 and a relative viability ([4]; first compound 0.253 µM) of 0.315. For the same cell line, the relative viability ([4]; first compound 0.8 µM) was 0.345, the relative viability ([4]; first compound 2.53 µM) was 0.353 and the relative viability ([4]; first compound 8 µM) was 0.375.
